Measurements reported in patent US9358247B2, “Methods and compositions for promoting activity of anti-cancer therapies” (Oncology Research International Limited, priority 2006, dated 2016).

Key:
K562 cell line = assay: Cancer cell growth inhibition, SRB dye assay (single agents and 50:50 IC50 mixtures); format: cell-based, human; settings: Homo sapiens, 144 h, Example 6, value used to make up 50:50 IC50 mixtures, read-out: IC50 values used in assay
Procedure: (§1) Cancer cells were seeded the day before application of drug in triplicate or quadruplicate in 96-well plates, allowed to grow in the presence of drug for 6 days before cell growth relative to untreated control wells was determined with a dye assay.
(§2) Cells were seeded in triplicate or quadruplicate at 3-4,000 per microtitre well in 90 μl of RPMI culture medium/10% foetal calf serum/penicillin, streptomycin mix, treated with 10 μl of drug (prepared in a dilution plate at 10× concentration required), and allowed to grow until the controls were nearly confluent (6 days).
(§3) SRB: Plates were washed with PBS, fixed with methylated spirits, washed with tap water and stained with 50 μL/well of SRB solution (sulforhodamine, 0.4% in 1% acetic acid), followed by washing with tap water and 1% acetic acid, solubilisation in Tris and absorbance read at 564 nm in an ELISA reader.
(§4) Data was collected using ELISA plate reader software—SOFTmax PRO3.1.2, then imported into EXCEL. The mean and SD of replicates were calculated as a % of control, after subtraction of the blank value (wells with no cells). A graph was plotted of % control vs dose of agent and IC50 (half maximal inhibitory concentration) values determined.
(§5) Tumour cells were seeded in duplicate in 96-well plates at 2-5,000 per microtitre well containing RPMI culture medium/10% foetal calf serum. The cells were allowed to grow until the controls were nearly confluent after 5-6 days. Plates were then washed with PBS, fixed in ethanol and stained with 50 μL/well of SRB solution (sulforhodamine, 0.4% in 1% acetic acid), followed by washing with 1% acetic acid and solubilisation in Tris. The absorbance was read at 564 nm using an ELISA reader.
(§6) The IC50, or concentration required to inhibit cell growth by 50%, was determined from the percentage inhibition versus concentration data using the probit calculation methods of Finney (Finney D J (1971). Probit Analysis. 3rd Edition. Cambridge University Press).
(§7) The inhibitory data from each mixture was used to determine an IC50 of IC50 value, where the concentrations used were the Multiplying Factor values. In order to determine the actual IC50 contribution of each component in the two-component mixture, the IC50 of IC50 value was multiplied by the IC50 of the individual component. This can then be used to determine the reduction in IC50 contribution (ie, reduction in dose) of the chemotherapeutic agent due to the presence of the steroid saponin in the mixture. A simpler way of determining the reduction in dose is to use the following simple formula: […]
The cell seeding and ELISA plate methodology of Example 2 were used for determining inhibition of the K562 cell line.

A549 cell line = assay: as above; format: cell-based, human; settings: Homo sapiens, 144 h, Example 4, value used to make up 50:50 IC50 mixtures, read-out: IC50 values used in assay
Procedure: as §1, §2, §3, §4, §5, §6, §7

C[C@@H]1CC[C@@]2(OC1)O[C@H]1C[C@H]3[C@@H]4CC=C5C[C@@H](O[C@@H]6O[C@H](CO)[C@@H](O[C@@H]7O[C@H](CO)[C@@H](O)[C@H](O)[C@H]7O)[C@H](O)[C@H]6O[C@@H]6O[C@@H](C)[C@H](O)[C@@H](O)[C@H]6O)CC[C@]5(C)[C@H]4CC[C@]3(C)[C@H]1[C@@H]2C [Deltonin, diosgenin Rha2, [Glc4], Glc]
IC50 (K562 cell line): 1000 nM
IC50 (A549 cell line): 1000 nM
